Assays:
VPAC1 = target: T1, VPAC1 (Homo sapiens, UniProt P32241); assay: GPCR Profiler; type: cell-based
T1 construct: host or cells: Chem-1 cells expressing Galpha15

FP = target: T2, FP (Homo sapiens, UniProt P43088); assay: GPCR Profiler; type: cell-based
T2 construct: host or cells: Chem-1 cells expressing Gα15

MARK4 = target: T3, MARK4 (Homo sapiens, UniProt Q96L34); assay: KinomeScan; type: binding; conditions: read-out: % Control
T3 construct: purchased DiscoveRx (Fremont, CA)

EPHA7 = target: T4, EPHA7 (Homo sapiens, UniProt Q15375); assay: KinomeScan; type: binding; conditions: read-out: % Control
T4 construct: purchased DiscoveRx (Fremont, CA)

ADCK4 = target: T5, ADCK4 (Homo sapiens, UniProt Q96D53); assay: KinomeScan; type: binding; conditions: read-out: % Control
T5 construct: purchased DiscoveRx (Fremont, CA)

GPR54 = target: T6, GPR54 (Homo sapiens, UniProt Q969F8); assay: GPCR Profiler; type: cell-based
T6 construct: host or cells: Chem-1 cells with promiscuous Gα15
T6 sequence (Q969F8 whole entry, species assumed): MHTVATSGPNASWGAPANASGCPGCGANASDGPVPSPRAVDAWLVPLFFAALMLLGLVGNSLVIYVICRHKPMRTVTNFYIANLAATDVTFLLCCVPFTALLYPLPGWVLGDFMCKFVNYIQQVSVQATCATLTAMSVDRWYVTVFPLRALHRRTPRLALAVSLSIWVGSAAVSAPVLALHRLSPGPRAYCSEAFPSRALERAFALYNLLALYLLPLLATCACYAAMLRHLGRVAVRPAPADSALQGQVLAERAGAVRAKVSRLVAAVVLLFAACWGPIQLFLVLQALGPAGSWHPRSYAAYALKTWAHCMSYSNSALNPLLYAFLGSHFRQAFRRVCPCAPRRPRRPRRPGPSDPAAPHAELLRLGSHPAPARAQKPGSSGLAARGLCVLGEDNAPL

HIPK4 = target: T7, HIPK4 (Homo sapiens, UniProt Q8NE63); assay: KinomeScan; type: binding; conditions: read-out: % Control
T7 construct: purchased DiscoveRx (Fremont, CA)

MINK = target: T8, MINK (Homo sapiens, UniProt Q8N4C8); assay: KinomeScan; type: binding; conditions: read-out: % Control
T8 construct: purchased DiscoveRx
T8 sequence (Q8N4C8 whole entry): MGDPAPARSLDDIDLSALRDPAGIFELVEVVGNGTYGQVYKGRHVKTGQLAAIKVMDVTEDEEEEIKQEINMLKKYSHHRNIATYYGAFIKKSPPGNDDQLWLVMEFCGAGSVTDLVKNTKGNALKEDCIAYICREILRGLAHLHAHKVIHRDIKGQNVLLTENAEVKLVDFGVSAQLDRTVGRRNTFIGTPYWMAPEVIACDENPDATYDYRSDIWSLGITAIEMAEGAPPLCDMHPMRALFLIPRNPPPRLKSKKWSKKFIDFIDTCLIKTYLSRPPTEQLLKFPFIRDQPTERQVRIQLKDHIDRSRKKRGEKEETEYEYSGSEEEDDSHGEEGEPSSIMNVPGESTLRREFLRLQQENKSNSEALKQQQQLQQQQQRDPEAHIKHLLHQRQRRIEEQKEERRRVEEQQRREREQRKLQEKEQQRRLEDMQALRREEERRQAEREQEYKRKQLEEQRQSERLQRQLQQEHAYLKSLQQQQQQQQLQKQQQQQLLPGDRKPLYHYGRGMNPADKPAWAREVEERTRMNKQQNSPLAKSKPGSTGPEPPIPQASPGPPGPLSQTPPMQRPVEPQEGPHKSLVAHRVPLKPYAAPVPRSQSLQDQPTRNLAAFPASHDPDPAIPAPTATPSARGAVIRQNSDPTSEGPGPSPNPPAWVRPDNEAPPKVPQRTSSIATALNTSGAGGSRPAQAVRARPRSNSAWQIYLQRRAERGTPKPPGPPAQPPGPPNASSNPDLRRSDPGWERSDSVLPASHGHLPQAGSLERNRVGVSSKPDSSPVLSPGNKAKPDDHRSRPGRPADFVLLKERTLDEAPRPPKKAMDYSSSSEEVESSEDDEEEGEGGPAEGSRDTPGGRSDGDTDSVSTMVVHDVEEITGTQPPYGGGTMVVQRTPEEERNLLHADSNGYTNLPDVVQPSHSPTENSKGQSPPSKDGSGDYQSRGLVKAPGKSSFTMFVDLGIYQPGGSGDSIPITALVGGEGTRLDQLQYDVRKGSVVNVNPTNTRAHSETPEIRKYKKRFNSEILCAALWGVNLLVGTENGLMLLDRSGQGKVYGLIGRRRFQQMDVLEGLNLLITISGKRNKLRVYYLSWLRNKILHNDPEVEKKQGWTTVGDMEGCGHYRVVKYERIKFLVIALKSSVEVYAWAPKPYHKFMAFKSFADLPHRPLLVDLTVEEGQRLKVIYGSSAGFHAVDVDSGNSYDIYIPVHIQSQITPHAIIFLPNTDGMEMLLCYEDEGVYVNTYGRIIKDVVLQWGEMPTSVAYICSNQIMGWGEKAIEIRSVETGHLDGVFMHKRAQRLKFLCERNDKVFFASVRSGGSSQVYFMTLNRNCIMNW

PIK3CA(E545K) = target: T9, PIK3CA(E545K) (Homo sapiens, UniProt P42336, E545K); assay: KinomeScan; type: binding; conditions: read-out: % Control
T9 construct: purchased DiscoveRx (Fremont, CA)

IKK-alpha = target: T10, IKK-alpha (Homo sapiens, UniProt O15111); assay: KinomeScan; type: binding; conditions: read-out: % Control
T10 construct: purchased DiscoveRx (Fremont, CA)

PKAC-alpha = target: T11, PKAC-alpha (Homo sapiens, UniProt P17612); assay: KinomeScan; type: binding; conditions: read-out: % Control
T11 construct: purchased DiscoveRx (Fremont, CA)

ABL1-phosphorylated = target: T12, ABL1-phosphorylated (Homo sapiens, UniProt P00519); assay: KinomeScan; type: binding; conditions: read-out: % Control
T12 construct: purchased DiscoveRx

ERBB3 = target: T13, ERBB3 (Homo sapiens, UniProt P21860); assay: KinomeScan; type: binding; conditions: read-out: % Control
T13 construct: purchased DiscoveRx (Fremont, CA)
T13 sequence (P21860 20-1342): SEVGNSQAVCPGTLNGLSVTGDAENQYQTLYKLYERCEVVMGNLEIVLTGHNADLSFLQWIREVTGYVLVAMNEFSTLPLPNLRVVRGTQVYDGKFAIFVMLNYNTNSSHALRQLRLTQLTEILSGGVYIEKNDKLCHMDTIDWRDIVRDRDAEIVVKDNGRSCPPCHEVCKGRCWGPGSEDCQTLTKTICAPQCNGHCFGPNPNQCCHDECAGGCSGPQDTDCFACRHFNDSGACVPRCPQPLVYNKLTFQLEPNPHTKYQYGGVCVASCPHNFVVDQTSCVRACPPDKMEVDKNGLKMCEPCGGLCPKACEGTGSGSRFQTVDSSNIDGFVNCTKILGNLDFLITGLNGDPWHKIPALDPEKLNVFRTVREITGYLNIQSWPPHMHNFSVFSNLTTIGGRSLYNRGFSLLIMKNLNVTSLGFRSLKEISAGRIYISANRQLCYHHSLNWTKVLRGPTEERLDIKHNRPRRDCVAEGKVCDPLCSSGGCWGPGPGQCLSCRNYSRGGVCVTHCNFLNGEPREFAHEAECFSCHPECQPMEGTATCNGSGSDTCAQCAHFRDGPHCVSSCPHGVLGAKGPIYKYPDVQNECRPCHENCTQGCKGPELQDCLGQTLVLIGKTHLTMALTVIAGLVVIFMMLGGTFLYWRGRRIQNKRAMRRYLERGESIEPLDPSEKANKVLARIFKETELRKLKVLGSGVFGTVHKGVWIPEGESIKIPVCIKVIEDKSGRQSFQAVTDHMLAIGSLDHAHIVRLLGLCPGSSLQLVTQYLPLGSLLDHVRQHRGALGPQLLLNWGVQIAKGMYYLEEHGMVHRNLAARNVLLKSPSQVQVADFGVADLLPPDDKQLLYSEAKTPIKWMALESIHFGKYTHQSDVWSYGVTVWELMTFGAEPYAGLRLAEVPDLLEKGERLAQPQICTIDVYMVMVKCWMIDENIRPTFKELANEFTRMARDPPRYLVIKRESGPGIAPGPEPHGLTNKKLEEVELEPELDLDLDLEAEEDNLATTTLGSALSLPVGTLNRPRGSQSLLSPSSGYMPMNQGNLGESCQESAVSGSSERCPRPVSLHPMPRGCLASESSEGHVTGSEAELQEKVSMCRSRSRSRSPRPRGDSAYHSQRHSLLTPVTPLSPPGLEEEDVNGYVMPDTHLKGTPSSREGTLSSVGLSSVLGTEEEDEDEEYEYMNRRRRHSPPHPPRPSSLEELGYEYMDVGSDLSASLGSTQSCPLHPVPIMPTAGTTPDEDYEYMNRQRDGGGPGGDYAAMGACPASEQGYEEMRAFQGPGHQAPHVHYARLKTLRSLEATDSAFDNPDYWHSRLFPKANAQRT

EGFR(T790M) = target: T14, EGFR(T790M) (Homo sapiens, UniProt P00533, T790M); assay: KinomeScan; type: binding; conditions: read-out: % Control
T14 construct: purchased DiscoveRx (Fremont, CA)

MET(M1250T) = target: T15, MET(M1250T) (Homo sapiens, UniProt P08581, M1250T); assay: KinomeScan; type: binding; conditions: read-out: % Control
T15 construct: purchased DiscoveRx (Fremont, CA)

LATS2 = target: T16, LATS2 (Homo sapiens, UniProt Q9NRM7); assay: KinomeScan; type: binding; conditions: read-out: % Control
T16 construct: purchased DiscoveRx

5-HT2A = target: T17, 5-HT2A (Homo sapiens, UniProt P28223); assay: GPCR Profiler; type: cell-based
T17 construct: host or cells: Chem-1 cells with promiscuous Gα15
T17 sequence (P28223 whole entry): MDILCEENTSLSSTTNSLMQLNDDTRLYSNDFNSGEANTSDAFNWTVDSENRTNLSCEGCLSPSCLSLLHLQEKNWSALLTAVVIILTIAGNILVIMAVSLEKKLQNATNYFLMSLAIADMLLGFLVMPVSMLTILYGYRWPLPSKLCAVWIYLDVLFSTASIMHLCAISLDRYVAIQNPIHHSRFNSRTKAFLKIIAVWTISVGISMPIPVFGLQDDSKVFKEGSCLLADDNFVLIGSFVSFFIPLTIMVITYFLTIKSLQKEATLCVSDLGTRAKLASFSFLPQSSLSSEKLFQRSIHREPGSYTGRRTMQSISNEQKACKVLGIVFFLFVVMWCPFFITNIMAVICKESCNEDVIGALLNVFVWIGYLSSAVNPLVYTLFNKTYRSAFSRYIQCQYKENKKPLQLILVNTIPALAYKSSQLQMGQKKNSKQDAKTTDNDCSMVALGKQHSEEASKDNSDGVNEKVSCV
Experimental: (§1) GPCR profiling assays were performed by Millipore (St. Louis, MO) using in cells expressing Gα15, a promiscuous G protein that enhances GPCR coupling to downstream Ca2+ signaling pathways. KinomeScan was conducted by DiscoveRx (Fremont, CA).
(§2) To identify the target of OGM1, the molecule was profiled for binding in a panel of 442 kinases (KinomeScan™, DiscoveRx™) and assessed its activity against 158 GPCRs in a single-point assay in Chem-1 cells that uses a promiscuous Gα15 protein to trigger calcium flux (see Table 9 and Table 10, below). […] Table 9. KinomeScan (DiscoverRx) profiling of OGM1.

PRP = target: T18, PRP (Homo sapiens, UniProt P49683); assay: GPCR Profiler; type: cell-based
T18 construct: host or cells: Chem-1 cells with Gα15
T18 sequence (P49683 whole entry): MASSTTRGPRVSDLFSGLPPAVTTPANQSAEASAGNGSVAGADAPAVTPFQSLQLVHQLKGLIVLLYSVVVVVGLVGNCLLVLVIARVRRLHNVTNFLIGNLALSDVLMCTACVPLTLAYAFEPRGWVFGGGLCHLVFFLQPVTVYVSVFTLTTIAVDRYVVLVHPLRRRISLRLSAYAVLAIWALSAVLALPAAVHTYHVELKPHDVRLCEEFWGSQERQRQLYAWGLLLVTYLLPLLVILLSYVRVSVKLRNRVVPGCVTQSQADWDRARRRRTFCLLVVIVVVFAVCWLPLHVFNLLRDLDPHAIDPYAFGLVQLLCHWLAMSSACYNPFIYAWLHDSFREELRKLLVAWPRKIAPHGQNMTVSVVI
Experimental: as §1, §2

RIPK2 = target: T19, RIPK2 (Homo sapiens, UniProt O43353); assay: KinomeScan; type: binding; conditions: read-out: % Control
T19 construct: purchased DiscoveRx (Fremont, CA)

IRAK1 = target: T20, IRAK1 (Homo sapiens, UniProt P51617); assay: KinomeScan; type: binding; conditions: read-out: % Control
T20 construct: purchased DiscoveRx (Fremont, CA)

GPR68 = GPR68 (Homo sapiens, UniProt Q15743); assay: SRE-luciferase assay, GPR68-transfected HEK293 cells; type: cell-based; conditions: 10 μM OGM2
GPR68, sequence (Q15743 whole entry): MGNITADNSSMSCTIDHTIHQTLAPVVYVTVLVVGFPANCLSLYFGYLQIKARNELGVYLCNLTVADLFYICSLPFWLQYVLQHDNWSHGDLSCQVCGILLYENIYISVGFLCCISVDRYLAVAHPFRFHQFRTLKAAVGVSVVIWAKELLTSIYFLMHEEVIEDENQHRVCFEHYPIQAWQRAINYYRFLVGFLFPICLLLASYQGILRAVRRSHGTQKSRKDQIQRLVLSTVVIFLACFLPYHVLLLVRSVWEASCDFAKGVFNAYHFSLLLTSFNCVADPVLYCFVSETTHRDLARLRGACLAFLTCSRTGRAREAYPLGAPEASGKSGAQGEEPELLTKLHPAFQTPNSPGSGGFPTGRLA
Experimental: 12-well plates of cells were transfected with 1 μg DNA using Lipofectamine 3000 with sre:luciferase and either the vector backbone, GFP, GPR68, GPR68-GFP, GPR4, or 336X-GFP. After 3 days, these cells were then lysed, and cell extracts were subjected to Steady-Glo luciferase assay (Promega™) according to the manufacturer's instructions. The results were normalized to cell titer, as determined using Cell Titer-Glo luminescence assay (Promega™). For some procedure, the cells were treated in serum-free medium, and were lysed on the third day.
Because GPR4, the paralog with highest homology with GPR68, was not covered in the initial GPCR profiling, whether OGM2 could inhibit GPR4 was tested by examining the effects of OGM2 on acid-induced serum responsive element (SRE) luciferase activity in HEK293 cells transfected with either GPR4 or GPR68. Mild acidification increased luciferase activity in GPR4 and GPR68 transfected cells above that of vector control.
Cas9^GPR68=GPR68 targeted sgRNA and Cas9; CTL=control; MoGPR68=GPR68 morpholino treatment. […] These cells were exposed to acidic media and assayed for luciferase activity as a readout of the receptor activity.

Panc02 = assay: Cell cycle analysis (propidium iodide flow cytometry); type: cell-based, mouse; conditions: 3 Gy radiation in combination with OGM
Experimental: Where appropriate, ANOVA, or student's T-test were conducted in PRISM. Chi squared T(X) was used for Liperfluo analysis. A value T(X)>4 implies that the two distributions are different with a p<0.01 (99% confidence). For drug interaction and therapeutic interaction, the coefficient of drug interaction (CDI) was calculated as follows: CDI=AB/(A×B). According to the impact of each group, AB is the value of combined treatment and A or B is the value of the single agent group to control group.
Both radiation and ferroptosis are known to induce G2/M arrest. Therefore, cells were treated with OGM2 and/or 3 Gy radiation. Media was then replaced, and cells were maintained for 24 hours. Cells were then trypsinized, pelleted, and fixed overnight in 70% Methanol at 4° C. Samples were then washed twice with cold PBS before being incubated with 10 mg/ml RNase A and 500 μg/ml propidium iodide in PBS in the dark for 30 minutes at room temperature. Cell cycle progression was determined by Flow cytometry using a LSR II from BD. FIG. 96A presents a cell cycle analysis of OGM2 treatment and irradiated Panc02 cells.

T2 sequence (P43088 whole entry): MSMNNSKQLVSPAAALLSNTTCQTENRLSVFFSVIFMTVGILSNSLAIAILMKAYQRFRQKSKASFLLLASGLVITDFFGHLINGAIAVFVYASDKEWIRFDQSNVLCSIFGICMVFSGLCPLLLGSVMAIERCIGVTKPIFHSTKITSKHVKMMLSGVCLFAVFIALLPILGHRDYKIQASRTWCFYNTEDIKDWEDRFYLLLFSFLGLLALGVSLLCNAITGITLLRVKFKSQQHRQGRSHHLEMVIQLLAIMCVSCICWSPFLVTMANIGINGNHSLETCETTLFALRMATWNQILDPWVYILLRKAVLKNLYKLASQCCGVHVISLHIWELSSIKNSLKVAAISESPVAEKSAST
T1 sequence (P32241 31-457): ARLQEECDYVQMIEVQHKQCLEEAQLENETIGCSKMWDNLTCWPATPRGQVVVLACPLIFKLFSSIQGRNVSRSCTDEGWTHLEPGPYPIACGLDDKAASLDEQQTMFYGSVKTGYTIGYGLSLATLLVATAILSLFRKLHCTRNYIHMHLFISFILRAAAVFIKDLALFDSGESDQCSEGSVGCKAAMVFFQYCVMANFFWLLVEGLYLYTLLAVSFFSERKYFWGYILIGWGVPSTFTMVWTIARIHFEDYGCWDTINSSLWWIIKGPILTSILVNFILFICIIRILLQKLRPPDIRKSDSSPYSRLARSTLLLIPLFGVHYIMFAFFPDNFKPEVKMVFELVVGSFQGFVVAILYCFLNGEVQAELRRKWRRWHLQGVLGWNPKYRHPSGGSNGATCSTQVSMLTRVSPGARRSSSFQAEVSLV

CCc1ccc2c(c1)C1(NN=C(c3cccc4ccccc34)S1)C(=O)N2 (stereo not shown) [OGM1, 5-ethyl-5′-naphthalen-1-ylspiro[1H-indole-3,2′-3H-1,3,4-thiadiazole]-2-one]
Antagonism (VPAC1; 10 uM): 16.6 | Agonism (VPAC1; 12.5 uM): 0 | Antagonism (FP; 10 uM): 8.9 | Agonism (FP; 12.5 uM): 0.9 | remaining binding at 10 µM (MARK4): 95% | remaining binding at 10 µM (EPHA7): 100% | remaining binding at 10 µM (ADCK4): 70% | Antagonism (GPR54; 10 uM): −5.8 | Agonism (GPR54; 12.5 uM): −0.6 | remaining binding at 10 µM (HIPK4): 100% | remaining binding at 10 µM (MINK): 97% | remaining binding at 10 µM (PIK3CA(E545K)): 100% | remaining binding at 10 µM (IKK-alpha): 83% | remaining binding at 10 µM (PKAC-alpha): 95% | remaining binding at 10 µM (ABL1-phosphorylated): 93% | remaining binding at 10 µM (ERBB3): 84% | remaining binding at 10 µM (EGFR(T790M)): 74% | remaining binding at 10 µM (MET(M1250T)): 68% | remaining binding at 10 µM (LATS2): 100% | Antagonism (5-HT2A; 10 uM): −12.3 | Agonism (5-HT2A; 12.5 uM): 1.2 | Antagonism (PRP; 10 uM): −11.1 | Agonism (PRP; 12.5 uM): −0.3 | remaining binding at 10 µM (RIPK2): 100% | remaining binding at 10 µM (IRAK1): 100%

CCc1ccc2c(c1)C1(NN=C(c3ccccc3)S1)C(=O)N2 (stereo not shown) [OGM2]
acid-induced SRE-luciferase activity (GPR68): completely inhibited the signal | coefficient of drug interaction (CDI), G2 phase fraction (Panc02): 0.689 | increase in the G2 phase fraction (Panc02): 120%

Reference: patent publication US20240327364A1, “THERAPEUTIC TARGETING OF GPR68 TO INDUCE FERROPTOSIS” (University Of Maryland, Baltimore, priority 2023, published 2024)
